The values that follow come from ChEMBL document CHEMBL2311347, “The discovery of fused oxadiazepines as gamma secretase modulators for treatment of Alzheimer's disease” (Bioorg Med Chem Lett, 2013).

By inhibition in vivo is commonly meant the change of the read-out against control, counted positive when it falls. As usually defined, the IC50 is the point on the concentration scale where inhibition reaches its midpoint. Broadly, the inhibition is how much of the control response was suppressed. Usually AUC stands for concentration integrated over time.

The test system of series [1] is Rattus norvegicus. As to the kind of experiment: Antialzheimer's disease activity in rat assessed as reduction in Abeta42 level at 10 mg/kg, po measured after 3 hrs post dose. It counts as functional.
The next series has as its target Gamma-secretase. As to the kind of experiment: Inhibition of gamma secretase (unknown origin) assessed as reduction of Abeta42 production. It counts as protein-complex assay, Homo sapiens.
Series [2] has as its target Gamma-secretase (Homo sapiens) (UniProt Q96BI3+Q9NZ42+Q8WW43+P49768+Q92542+P49810). Nature of the series: Inhibition of gamma secretase (unknown origin) assessed as ratio of Abeta to Abeta42 level. It counts as protein-complex assay.
The next series deals with hERG (Homo sapiens, UniProt Q12809). As to the kind of experiment: Inhibition of human ERG at 10 uM.
For series [3], the system named is Rattus norvegicus. Nature of the series: Antialzheimer's disease activity in rat assessed as reduction in Abeta42 level at 3 mg/kg, po measured after 3 hrs post dose. It counts as functional.
The nature of series [4]: Drug level in rat brain at 10 mg/kg, po measured after 6 hrs post dose. It counts as ADME, organism-based. Also on record: dose 10 mg/kg, route oral. Particulars: read-out: Drug uptake.
Series [5] has as its target T1, Nuclear receptor subfamily 1 group I member 2 (Homo sapiens, UniProt O75469).
T1 sequence (O75469 whole entry): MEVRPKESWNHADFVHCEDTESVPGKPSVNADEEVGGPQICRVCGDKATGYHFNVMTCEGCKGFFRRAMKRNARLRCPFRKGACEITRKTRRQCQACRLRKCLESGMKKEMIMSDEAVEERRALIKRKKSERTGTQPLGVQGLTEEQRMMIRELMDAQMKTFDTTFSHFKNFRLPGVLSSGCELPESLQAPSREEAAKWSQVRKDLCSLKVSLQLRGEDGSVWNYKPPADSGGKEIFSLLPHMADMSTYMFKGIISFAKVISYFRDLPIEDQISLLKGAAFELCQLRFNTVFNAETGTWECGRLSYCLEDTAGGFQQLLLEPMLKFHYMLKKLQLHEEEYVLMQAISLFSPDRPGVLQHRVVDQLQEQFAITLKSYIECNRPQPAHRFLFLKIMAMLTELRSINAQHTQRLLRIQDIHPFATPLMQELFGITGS
As to the kind of experiment: Activation of PXR (unknown origin) assessed as induction of CYP1A1 expression up to 30 uM relative to untreated control. It counts as ADME.

Series [6] deals with T1, Nuclear receptor subfamily 1 group I member 2. Nature of the series: Activation of PXR (unknown origin) assessed as induction of CYP3A1 expression up to 30 uM relative to untreated control. It counts as ADME.
The nature of series [7]: Ratio of drug level in brain to plasma in rat at 10 mg/kg, po measured after 6 hrs post dose. Particulars: read-out: BPR. Also on record: dose 10 mg/kg, route oral. It counts as ADME, organism-based.
Series [8] in a line: AUC in rat at 10 mg/kg, po measured after 6 hrs post dose. Particulars: plasma. It counts as ADME, organism-based. On the set-up: time < 6 hr, dose 10 mg/kg, route oral.
For a further series, the target named is Cytochrome P450 3A4 (Homo sapiens, UniProt P08684). As to the kind of experiment: Inhibition of CYP3A4 (unknown origin). It counts as ADME.
The next series addresses Cytochrome P450 2C9 (Homo sapiens, UniProt P11712). As to the kind of experiment: Inhibition of CYP2C9 (unknown origin). It counts as ADME.
In series [9] the test system is Rattus norvegicus. As to the kind of experiment: Antialzheimer's disease activity in rat assessed as reduction in Abeta42 level at 30 mg/kg, po measured after 3 hrs post dose. It counts as functional.
In the next series the target is Cytochrome P450 2D6 (Homo sapiens, UniProt P10635). Nature of the series: Inhibition of CYP2D6 (unknown origin). It counts as ADME.
In series [10] the target is T1, Nuclear receptor subfamily 1 group I member 2. As to the kind of experiment: Activation of PXR (unknown origin) assessed as induction of CYP2B1/2 expression up to 30 uM relative to untreated control. It counts as ADME.
Series [11] deals with Rattus norvegicus. As to the kind of experiment: Antialzheimer's disease activity in po dosed rat assessed as reduction in Abeta42 level measured after 3 hrs post dose. It counts as functional, organism-based.

hERG, sequence (Q12809 whole entry): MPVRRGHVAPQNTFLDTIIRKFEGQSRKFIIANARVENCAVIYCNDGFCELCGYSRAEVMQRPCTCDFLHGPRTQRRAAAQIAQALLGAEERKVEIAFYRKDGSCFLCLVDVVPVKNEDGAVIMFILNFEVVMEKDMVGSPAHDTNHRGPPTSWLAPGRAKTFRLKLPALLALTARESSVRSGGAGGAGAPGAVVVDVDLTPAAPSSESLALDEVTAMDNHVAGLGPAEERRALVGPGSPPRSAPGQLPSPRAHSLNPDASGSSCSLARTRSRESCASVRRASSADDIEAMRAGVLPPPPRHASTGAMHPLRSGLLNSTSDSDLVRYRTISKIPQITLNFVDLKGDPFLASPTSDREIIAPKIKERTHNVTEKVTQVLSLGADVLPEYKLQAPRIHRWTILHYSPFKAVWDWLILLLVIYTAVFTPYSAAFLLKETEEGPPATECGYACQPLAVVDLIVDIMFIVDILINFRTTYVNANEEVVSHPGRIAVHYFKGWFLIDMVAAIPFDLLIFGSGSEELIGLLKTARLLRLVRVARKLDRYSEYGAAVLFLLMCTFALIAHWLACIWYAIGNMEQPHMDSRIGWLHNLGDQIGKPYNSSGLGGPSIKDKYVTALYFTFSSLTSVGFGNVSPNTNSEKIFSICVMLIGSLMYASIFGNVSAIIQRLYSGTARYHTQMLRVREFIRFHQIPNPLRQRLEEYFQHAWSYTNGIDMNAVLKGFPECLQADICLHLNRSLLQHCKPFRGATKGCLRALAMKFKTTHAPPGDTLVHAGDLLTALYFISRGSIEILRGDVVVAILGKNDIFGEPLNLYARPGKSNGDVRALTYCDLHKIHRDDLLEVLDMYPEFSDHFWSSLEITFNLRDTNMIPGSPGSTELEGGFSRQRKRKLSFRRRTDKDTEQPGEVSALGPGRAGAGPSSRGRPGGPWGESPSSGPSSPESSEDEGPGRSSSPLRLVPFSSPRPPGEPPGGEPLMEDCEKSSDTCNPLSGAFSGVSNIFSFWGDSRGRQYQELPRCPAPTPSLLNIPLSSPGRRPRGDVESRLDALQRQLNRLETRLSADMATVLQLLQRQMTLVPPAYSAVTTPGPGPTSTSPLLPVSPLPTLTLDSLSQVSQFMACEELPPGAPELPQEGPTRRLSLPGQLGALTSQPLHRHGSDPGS
Cytochrome P450 2D6, sequence (P10635 whole entry): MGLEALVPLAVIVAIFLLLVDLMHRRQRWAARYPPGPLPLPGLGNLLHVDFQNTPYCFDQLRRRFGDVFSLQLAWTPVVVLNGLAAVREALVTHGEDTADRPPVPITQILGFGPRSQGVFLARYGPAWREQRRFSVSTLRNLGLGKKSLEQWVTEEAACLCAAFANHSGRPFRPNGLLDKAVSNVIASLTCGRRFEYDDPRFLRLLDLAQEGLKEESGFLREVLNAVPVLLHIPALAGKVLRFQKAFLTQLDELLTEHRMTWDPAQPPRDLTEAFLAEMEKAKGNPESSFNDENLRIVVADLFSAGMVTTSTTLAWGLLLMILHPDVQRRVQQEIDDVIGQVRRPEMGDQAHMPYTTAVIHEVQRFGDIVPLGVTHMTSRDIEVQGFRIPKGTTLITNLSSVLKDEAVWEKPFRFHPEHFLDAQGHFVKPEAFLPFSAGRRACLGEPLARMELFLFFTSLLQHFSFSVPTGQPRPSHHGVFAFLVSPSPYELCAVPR
Cytochrome P450 3A4, sequence (P08684 whole entry): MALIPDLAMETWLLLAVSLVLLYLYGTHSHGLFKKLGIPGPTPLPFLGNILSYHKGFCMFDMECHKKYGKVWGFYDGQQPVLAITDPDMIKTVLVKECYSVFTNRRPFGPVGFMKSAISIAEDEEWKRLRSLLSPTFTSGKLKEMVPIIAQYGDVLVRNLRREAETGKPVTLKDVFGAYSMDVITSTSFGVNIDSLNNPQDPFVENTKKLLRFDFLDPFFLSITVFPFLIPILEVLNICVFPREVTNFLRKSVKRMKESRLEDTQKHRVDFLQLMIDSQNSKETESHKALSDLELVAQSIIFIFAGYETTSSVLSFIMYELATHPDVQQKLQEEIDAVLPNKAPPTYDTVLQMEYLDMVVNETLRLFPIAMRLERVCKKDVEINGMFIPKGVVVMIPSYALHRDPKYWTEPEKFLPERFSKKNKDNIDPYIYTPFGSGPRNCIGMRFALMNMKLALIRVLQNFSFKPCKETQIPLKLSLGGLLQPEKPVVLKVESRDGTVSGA
Cytochrome P450 2C9, sequence (P11712 whole entry): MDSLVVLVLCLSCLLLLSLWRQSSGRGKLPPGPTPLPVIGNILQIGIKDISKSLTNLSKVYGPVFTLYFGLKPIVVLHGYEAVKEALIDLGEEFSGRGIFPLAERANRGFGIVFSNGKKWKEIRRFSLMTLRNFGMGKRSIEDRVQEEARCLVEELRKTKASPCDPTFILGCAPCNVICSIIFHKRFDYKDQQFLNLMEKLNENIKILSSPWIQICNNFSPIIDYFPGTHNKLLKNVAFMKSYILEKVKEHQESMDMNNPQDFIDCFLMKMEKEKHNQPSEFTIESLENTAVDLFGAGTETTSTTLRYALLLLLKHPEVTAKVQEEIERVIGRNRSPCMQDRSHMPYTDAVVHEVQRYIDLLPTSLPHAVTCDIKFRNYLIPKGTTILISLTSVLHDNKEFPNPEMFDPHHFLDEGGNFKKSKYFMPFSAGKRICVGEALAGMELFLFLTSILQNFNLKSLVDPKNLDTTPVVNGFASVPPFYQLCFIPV

For the compound `COc1cc(/C=C2\CCCN3C2=NOCC[C@@H]3c2ccc(F)cc2F)ccc1-n1cnc(C)c1`, in the series with Rattus norvegicus [1], the inhibition in vivo at 10 mg/kg stood at 23%. Moreover, the IC50 on Gamma-secretase was 52 nM. The Ratio in series [2] came out at 354.
In the case of `COc1cc(/C=C2\CCCN3C2=NOCC[C@@H]3c2ccc(F)cc2)ccc1-n1cnc(C)c1`, the inhibition in vivo at 10 mg/kg in the series on Rattus norvegicus [1] was 40%. The inhibition at 10 µM against hERG worked out at 81%. In addition, on Gamma-secretase, the IC50 turned out to be 49 nM. Besides, the Ratio in series [2] stood at 409.
On hERG, `COc1cc(/C=C2\CCCN3CCC(c4ccc(F)cc4)ON=C23)ccc1-n1cnc(C)c1` (configuration not stated) showed an inhibition at 10 µM of 93%. Also, at Gamma-secretase, the 50% inhibitory concentration (IC50) came out at 43 nM. Also, the Ratio in series [2] stood at 465.
Consider `COc1cc(/C=C2\CCCN3C2=NOCC[C@@H]3c2ccc(F)c(Cl)c2)ccc1-n1cnc(C)c1`, for which, in the series on Rattus norvegicus [1], the inhibition in vivo at 10 mg/kg is 38%. This compound gave an inhibition at 10 µM against hERG of 39%. In addition, at Gamma-secretase, the IC50 amounted to 40 nM. Moreover, the Ratio in series [2] is 340.
As to `COc1cc(/C=C2\CCCN3CCC(c4cc(F)c(F)c(F)c4)ON=C23)ccc1-n1cnc(C)c1` (configuration not stated), the inhibition at 10 µM at hERG amounted to 89%. For the same compound, on Gamma-secretase, the IC50 came to 53 nM. The Ratio in series [2] was determined as 364.
On to `COc1cc(/C=C2\CCCN3C2=NOCC[C@@H]3c2cc(F)cc(Cl)c2)ccc1-n1cnc(C)c1`, for which the inhibition in vivo at 10 mg/kg in the series with Rattus norvegicus [1] is 59%. At hERG, this compound came in with an inhibition at 10 µM of 53%. The half-maximal inhibitory concentration (IC50) at Gamma-secretase turned out to be 16 nM. Moreover, in series [2], the Ratio turned out to be 480.
As for `COc1cc(/C=C2\CCCCN3C2=NOC[C@@H]3c2ccc(F)cc2)ccc1-n1cnc(C)c1`, on Gamma-secretase, the IC50 came to 580 nM. The Ratio in series [2] came to 35.
As for `COc1cc(/C=C2\CCCN3C2=NOCC[C@@H]3c2cc(F)c(F)c(F)c2)ccc1-n1cnc(C)c1`, the inhibition in vivo at 3 mg/kg in the series on Rattus norvegicus [3] worked out at 43%. Also, in the series with Rattus norvegicus [1], the inhibition in vivo at 10 mg/kg worked out at 61%. The concentration at 6 h in series [4] turned out to be 1800 ng/g. Also, the Activity was 2% in series [5], 0% in [6] and 0% in [10]. Further, the Kp at 6 h in series [7] was determined as 3.2. Moreover, the inhibition at 10 µM against hERG came to 33%. In series [8], this compound showed an AUC at 6 h of 15.8 µM·h. The IC50 on Cytochrome P450 3A4 is more than 30000 nM; at Cytochrome P450 2C9 it was more than 30000 nM; at Gamma-secretase, 39 nM; on Cytochrome P450 2D6, more than 30000 nM. For the same compound, the inhibition in vivo at 30 mg/kg in the series with Rattus norvegicus [9] is 78%. For the same compound, the Ratio in series [2] came to 510. Besides, the inhibition entry in the series on Rattus norvegicus [11] is “Dose-dependent effect”.
`COc1cc(/C=C2\CCCN3C2=NOCC[C@@H]3c2cc(F)cc(F)c2)ccc1-n1cnc(C)c1`: the inhibition in vivo at 10 mg/kg in the series on Rattus norvegicus [1] was found to be 39%. At hERG, at 10 µM the inhibition was 49%. In addition, the IC50 at Gamma-secretase is 37 nM. The Ratio in [2] is 392.
Consider `COc1cc(/C=C2\CCCN3C2=NOCC[C@@H]3c2ccc(Cl)c(F)c2)ccc1-n1cnc(C)c1`, for which the inhibition in vivo at 10 mg/kg with Rattus norvegicus [1] worked out at 57%. At Gamma-secretase, the half-maximal inhibitory concentration (IC50) was 95 nM. Besides, the Ratio in series [2] was 210.
`COc1cc(/C=C2\CCCN3CCC(c4cc(F)cc(Cl)c4)ON=C23)ccc1-n1cnc(C)c1` (configuration not stated) returned an inhibition at 10 µM on hERG of 61%. For the same compound, the half-inhibitory concentration (IC50) on Gamma-secretase is 64 nM. Further, the Ratio in series [2] stood at 262.
For `COc1cc(/C=C2\CCCN3C2=NOC(C)CC3c2cc(F)c(F)c(F)c2)ccc1-n1cnc(C)c1` (mixture of isomers), the IC50 at Gamma-secretase was 41 nM. Besides, the Ratio in series [2] is 480.
On the same counts, the results for `COc1cc(/C=C2\CCCN3CC(c4ccccc4)CON=C23)ccc1-n1cnc(C)c1` (configuration not stated) are 140 nM and 140.
On to `COc1cc(/C=C2\CCCN3CC(c4ccc(F)cc4)CON=C23)ccc1-n1cnc(C)c1` (configuration not stated), for which the inhibition at 10 µM at hERG turned out to be 90%. Besides, on Gamma-secretase, the IC50 was 130 nM. In addition, the Ratio in series [2] turned out to be 150.
In the case of `COc1cc(/C=C2\CCCN3CCC(c4cc(F)cc(F)c4)ON=C23)ccc1-n1cnc(C)c1` (configuration not stated), the IC50 on Gamma-secretase was found to be 41 nM. Also, the Ratio in series [2] was found to be 371.
`COc1cc(/C=C2\CCCN3C2=NOC[C@@H](O)[C@@H]3c2cc(F)cc(F)c2)ccc1-n1cnc(C)c1`: the inhibition at 10 µM against hERG is 55%. Further, the IC50 on Gamma-secretase is 240 nM. In [2], the Ratio is 83.
For `CCCO[C@@H]1CON=C2/C(=C/c3ccc(-n4cnc(C)c4)c(OC)c3)CCCN2[C@H]1c1cc(F)cc(F)c1`, at hERG, the inhibition at 10 µM is 42%. In addition, at Gamma-secretase, the IC50 was 1260 nM. Also, the Ratio in series [2] was determined as 16.
With `COc1cc(/C=C2\CCCN3C2=NOC[C@@H]3c2cc(F)c(F)c(F)c2)ccc1-n1cnc(C)c1`, the Ratio in [2] amounted to 607.
In the case of `COc1cc(/C=C2\CCCCN3C2=NOC[C@@H]3c2cc(F)c(F)c(F)c2)ccc1-n1cnc(C)c1`, at Gamma-secretase, the half-maximal inhibitory concentration (IC50) stood at 88 nM. For the same compound, the Ratio in series [2] is 32.
On hERG, `COc1cc(/C=C2\CCCN3C2=NOCC[C@@H]3c2cccc(F)c2)ccc1-n1cnc(C)c1` yielded an inhibition at 10 µM of 86%. Also, the half-maximal inhibitory concentration (IC50) on Gamma-secretase worked out at 35 nM. Further, the Ratio in series [2] worked out at 572.
On the same counts, the results for `COc1cc(/C=C2\CCCN3CCC(c4ccccc4)ON=C23)ccc1-n1cnc(C)c1` (configuration not stated) are 93%, 41 nM and 489.
`COc1cc(/C=C2\CCCN3C2=NOCC[C@@H]3c2ccc(F)c(F)c2)ccc1-n1cnc(C)c1`: the inhibition in vivo at 10 mg/kg with Rattus norvegicus [1] came out at 48%. The compound further showed an inhibition at 10 µM against hERG of 56%. In addition, the concentration for half-maximal inhibition (IC50) on Gamma-secretase worked out at 24 nM. The Ratio in [2] worked out at 466.
